In paper PMC9732821, “Neurotrophic Activity and Its Modulation by Zinc Ion of a Dimeric Peptide Mimicking the Brain-Derived Neurotrophic Factor N-Terminal Region” (ACS Chemical Neuroscience, 2022):

B1: brain-derived neurotrophic factor (protein, UniProt P23560 1-247, looked up)
chain: MTILFLTMVISYFGCMKAAPMKEANIRGQGGLAYPGVRTHGTLESVNGPKAGSRGLTSLADTFEHVIEELLDEDQKVRPNEENNKDADLYTSRVMLSSQVPLEPPLLFLLEEYKNYLDAANMSMRVRRHSDPARRGELSVCDSISEWVTAADKKTAVDMSGGTVTVLEKVPVSKGQLKQYFYETKCNPMGYTKEGCRGIDKRHWNSQCRTTQSYVRALTMDSKKRIGWRFIRIDTSCVCTLTIKRGR
modifications: full-length
notes: full-length human BDNF produced recombinantly in Escherichia coli

How the values were obtained:
undifferentiated cells = conditions: cited from earlier work
Text: Previous functional studies agree in identifying the N-terminal region as a pivotal NT domain for the binding selectivity and activation of Trks.[25]−[27] However, most of these information were obtained from the NGF-TrkA system.[28],[29] On the other hand, the BDNF N-terminal region has been less investigated. […] Mo ...

ERK = ERK phosphorylation in HEK 293 cells, which do not express TrkB; assay type: cell-based, human; conditions: increasing concentrations, 10 min, unstimulated control 100%
Protocol: Figure S1. Evaluation of d-bdnf mechanism of action. A) ERK phosphorylation levels detected in HEK293T cells, after stimulation (10 min) with increasing concentrations of BDNF (white columns) or d-bdnf (grey columns) normalized to the unstimulated control (CTRL, black column) set to 100%.
Dunnett’s multiple comparison test. B) ERK phosphorylation levels detected in differentiated SH-SY5Y cells, after stimulation (10 min) with a combination of a single concentration of BDNF (1 nM referred to monomeric form) with increasing concentrations (10 nM-100 µM) of d-bdnf (left); B) a combination of a single concentration of d-bdnf (10 µM) with increasing concentrations (0.074 nM – 10 nM) of BDNF (right). […] C) Representative confocal fluorescence images of SH-SY5Y cells differentiated with retinoic acid (RA) and treated acutely with BDNF, d-bdnf or a combination of the two. […] Scale bar: 50 µm.D) Scatter dot plot of the mean ± SEM fluorescence intensity of the analyzed fields (nfields) for the different samples (NT: nfields=9 and total ncells= 285; BDNF: nfields=10 and total ncells= 297; d-bdnf: nfields=10 and total ncells= 255 cells; BDNF+d-bdnf: nfields=10 and total ncells= 253 cells; **p<0.01 according to […]
HSDPARRGELSV-NH2 (m-bdnf): Rt = 25.2 min. ESI-MS: calculated for C54H91N21O18: 1322.4 […]
SRAGPHLRDVSE-NH2 (s-bdnf): Rt = 27.4 min. ESI-MS: calculated for C54H91N21O18: 1322.4 […]

membrane-bound BDNF = assay: membrane-bound BDNF, non-permeabilizing immunofluorescence in differentiated SH-SY5Y cells; assay type: cell-based, human; conditions: 1 h
Text: The possibility of mimicking the function of the full-length BDNF protein by using a linear peptide fragment encompassing the first 12 amino acids of the mature NT N-terminal was already postulated.[31] Here, we named this sequence as m-bdnf (Figure 1A) and performed a systematic comparison between the performance of the full-length human BDNF produced recombinantly in Escherichia coli([32]) and (i) m-bdnf, (ii) a dimeric peptide displaying two copies of the m-bdnf sequence covalently bound by a disulfide bridge (d-bdnf), and (iii) a monomeric peptide displaying the scrambled sequence of m-bdnf (s-bdnf). We first investigated the ability of these peptides to activate the TrkB receptor. […] Specifically, an EC50 concentration of BDNF (1 nM) or of d-bdnf (10 μM) was used in combination with the increasing concentration of d-bdnf and BDNF, respectively, and the increase of ERK phosphorylation was assessed. […] Of note, we also performed a non-permeabilizing immunofluorescence analysis to quantify the membrane-bound BDNF in differentiated SH-SY5Y cells in the absence or presence of BDNF and d-bdnf (Figure S1C,D). […] The same increment was not observed upon treatment with the d-bdnf peptide, while instead we measured a slight (∼18%) decrease of the signal possibly due to the ability of the peptide to displace endogenous BDNF at the tested dose (10 μM). […]

Row | Molecule | proliferative capacity (undifferentiated cells) | ERK phosphorylation in HEK 293 cells (ERK) | decrease of membrane-bound BDNF fluorescent signal (membrane-bound BDNF; d-bdnf 10 μM) | increase of membrane-bound BDNF fluorescent signal (membrane-bound BDNF; BDNF 150 ng/mL)
1 | HSDPARRGELSV-NH2 [m-bdnf, linear peptide fragment encompassing the first 12 amino acids of the mature NT N-terminal] | displays proliferative capacity in undifferentiated cells | – | – | –
2 | HSDPARRGELSVC-C-VSLEGRRAPDSH (disulfide) [d-bdnf] | – | not significantly different | ~18% | –
3 | B1 | – | not significantly different | – | ~40%
